Values after ≈ are worked out from the molar mass of the structure shown. Values belong to the molecule of their own block, whether it stands above or below them.
Assays:
[1] = target: Phosphatidylinositol 4,5-bisphosphate 3-kinase catalytic subunit gamma isoform (Homo sapiens, UniProt P48736); assay: Inhibition of recombinant human N-terminal His6-tagged full length p110gamma using PIP2 as substrate preincubated for 30 mins followed by substrate addition by HTRF assay
[2] = Drug metabolism in rat liver microsomes assessed as disappearance of parent compound at 5 uM after 30 mins in presence of NADPH by UPLC-MS/MS analysis; format: ADME, microsome; details: read-out: Drug metabolism
[3] = Drug metabolism in rat liver microsomes assessed as disappearance of parent compound at 5 uM preincubated for 3 mins followed UDPG addition and measured after 120 mins by UPLC-MS/MS analysis; format: ADME, microsome; details: read-out: Drug metabolism
[4] = Drug metabolism in human liver microsomes assessed as disappearance of parent compound at 5 uM after 30 mins in presence of NADPH by UPLC-MS/MS analysis; format: ADME, microsome; details: read-out: Drug metabolism
[5] = Drug metabolism in human liver microsomes assessed as disappearance of parent compound at 5 uM preincubated for 3 mins followed UDPG addition and measured after 120 mins by UPLC-MS/MS analysis; format: ADME, microsome; details: read-out: Drug metabolism
[6] = target: T1, Phosphatidylinositol 4,5-bisphosphate 3-kinase catalytic subunit delta isoform (Homo sapiens, UniProt O00329); assay: Inhibition of PI3Kdelta in human THP-1 cells assessed as reduction in M-CSF-stimulated AKT phosphorylation at Thr308 preincubated for 30 mins followed by M-CSF addition for 3 mins by ELISA; format: cell-based
T1 sequence (O00329 whole entry): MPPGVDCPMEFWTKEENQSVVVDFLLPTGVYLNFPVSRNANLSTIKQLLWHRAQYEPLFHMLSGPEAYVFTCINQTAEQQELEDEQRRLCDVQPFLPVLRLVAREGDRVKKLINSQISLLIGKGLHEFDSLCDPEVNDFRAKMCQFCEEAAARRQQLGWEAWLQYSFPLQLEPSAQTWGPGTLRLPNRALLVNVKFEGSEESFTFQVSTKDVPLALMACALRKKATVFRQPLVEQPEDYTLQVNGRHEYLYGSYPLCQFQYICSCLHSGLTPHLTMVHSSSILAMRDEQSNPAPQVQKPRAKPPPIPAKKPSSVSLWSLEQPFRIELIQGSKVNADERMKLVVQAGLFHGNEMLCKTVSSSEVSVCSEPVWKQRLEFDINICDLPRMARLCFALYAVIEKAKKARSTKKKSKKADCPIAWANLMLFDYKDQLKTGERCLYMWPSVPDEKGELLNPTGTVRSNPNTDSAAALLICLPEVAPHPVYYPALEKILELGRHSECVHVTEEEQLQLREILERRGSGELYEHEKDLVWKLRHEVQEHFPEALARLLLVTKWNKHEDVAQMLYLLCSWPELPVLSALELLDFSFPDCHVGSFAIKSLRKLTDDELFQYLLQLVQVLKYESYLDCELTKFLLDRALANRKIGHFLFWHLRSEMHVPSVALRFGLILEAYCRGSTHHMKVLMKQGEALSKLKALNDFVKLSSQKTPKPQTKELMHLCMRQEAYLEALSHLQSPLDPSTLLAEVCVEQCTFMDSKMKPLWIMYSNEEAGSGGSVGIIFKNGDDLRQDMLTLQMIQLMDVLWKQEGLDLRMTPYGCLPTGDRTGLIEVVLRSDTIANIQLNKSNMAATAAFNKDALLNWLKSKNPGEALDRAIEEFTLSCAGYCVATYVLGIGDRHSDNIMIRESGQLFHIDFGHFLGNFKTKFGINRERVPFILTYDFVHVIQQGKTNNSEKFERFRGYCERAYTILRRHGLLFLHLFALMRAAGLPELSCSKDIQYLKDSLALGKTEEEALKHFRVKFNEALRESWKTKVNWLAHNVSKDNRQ

[7] = Apparent permeability of the compound at 20 uM by PAMPA assay; format: ADME
[8] = Thermodynamic aqueous solubility of the compound at pH 7.4; format: physicochemical; details: buffer, read-out: Therm_solubility
[9] = AUC in Wistar rat at 1 mg/kg, iv; format: ADME, organism-based; details: in vivo
[10] = Cmax in Wistar rat at 1 mg/kg, iv; format: ADME, organism-based; parameters: dose 1 mg/kg, route intravenous; details: in vivo
[11] = Clearance in Wistar rat at 1 mg/kg, iv; format: ADME, organism-based; details: in vivo
[12] = Volume of distribution at steady state in Wistar rat at 1 mg/kg, iv; format: ADME, organism-based; details: in vivo, read-out: Vdss
[13] = Half life in Wistar rat at 1 mg/kg, iv; format: ADME, organism-based; details: in vivo
[14] = Oral bioavailability in Wistar rat at 1 mg/kg; format: ADME, organism-based; details: in vivo
[15] = Protein binding in rat plasma at 1 uM by equilibrium dialysis; format: ADME, cell-free; details: read-out: PPB (converted)
[16] = AUC in Wistar rat lung at 0.015 mg/kg, it administered as solution; format: ADME, organism-based; details: in vivo, inhaled_or_intranasal
[17] = AUC in Wistar rat lung at 0.3 mg/kg, it administered as suspension; format: ADME, organism-based; details: in vivo, inhaled_or_intranasal
[18] = AUC in Wistar rat plasma at 0.015 mg/kg, it administered as solution; format: ADME, organism-based; details: inhaled or intranasal
[19] = AUC in Wistar rat plasma at 0.3 mg/kg, it administered as suspension; format: ADME, organism-based; details: inhaled or intranasal
[20] = Ratio of AUC in lung to plasma of Wistar rat at 0.015 mg/kg, it administered as solution; format: ADME, organism-based; details: Wistar, lung and plasma, inhaled or intranasal
[21] = Ratio of AUC in lung to plasma of Wistar rat at 0.3 mg/kg, it administered as suspension; format: ADME, organism-based; details: Wistar, lung and plasma, inhaled or intranasal
[22] = Cmax in Wistar rat lung at 0.015 mg/kg, it administered as solution; format: ADME, organism-based; parameters: dose 0.015 mg/kg; details: inhaled or intranasal
[23] = Cmax in Wistar rat lung at 0.3 mg/kg, it administered as suspension; format: ADME, organism-based; parameters: dose 0.3 mg/kg; details: inhaled or intranasal
[24] = Cmax in Wistar rat plasma at 0.015 mg/kg, it administered as solution; format: ADME, organism-based; parameters: dose 0.015 mg/kg; details: inhaled or intranasal
[25] = Half life in Wistar rat lung at 0.015 mg/kg, it administered as solution; format: ADME, organism-based; details: inhaled or intranasal
[26] = Half life in Wistar rat lung at 0.3 mg/kg, it administered as suspension; format: ADME, organism-based; details: inhaled or intranasal
[27] = Half life in Wistar rat plasma at 0.015 mg/kg, it administered as solution; format: ADME, organism-based; details: inhaled or intranasal
[28] = Half life in Wistar rat plasma at 0.3 mg/kg, it administered as suspension; format: ADME, organism-based; details: inhaled or intranasal
[29] = system: Rattus norvegicus; assay: (§1) Anti-inflammatory activity in Brown Norway rat model of ovalbumin-induced inflammation assessed inhibition of neutrophil infiltration in bronchoalveolar lavage at 1 mg/kg, it administered 1 hr before ovalbumin aerosol challenge and measured 24 hrs post challenge by hematology analysis relative to control; format: functional; details: inhaled or nasal
[30] = target: PI3-kinase p110-delta/p85-alpha (Homo sapiens, UniProt O00329)
Chain of PI3-kinase p110-delta/p85-alpha (P27986 whole entry, one chain of several): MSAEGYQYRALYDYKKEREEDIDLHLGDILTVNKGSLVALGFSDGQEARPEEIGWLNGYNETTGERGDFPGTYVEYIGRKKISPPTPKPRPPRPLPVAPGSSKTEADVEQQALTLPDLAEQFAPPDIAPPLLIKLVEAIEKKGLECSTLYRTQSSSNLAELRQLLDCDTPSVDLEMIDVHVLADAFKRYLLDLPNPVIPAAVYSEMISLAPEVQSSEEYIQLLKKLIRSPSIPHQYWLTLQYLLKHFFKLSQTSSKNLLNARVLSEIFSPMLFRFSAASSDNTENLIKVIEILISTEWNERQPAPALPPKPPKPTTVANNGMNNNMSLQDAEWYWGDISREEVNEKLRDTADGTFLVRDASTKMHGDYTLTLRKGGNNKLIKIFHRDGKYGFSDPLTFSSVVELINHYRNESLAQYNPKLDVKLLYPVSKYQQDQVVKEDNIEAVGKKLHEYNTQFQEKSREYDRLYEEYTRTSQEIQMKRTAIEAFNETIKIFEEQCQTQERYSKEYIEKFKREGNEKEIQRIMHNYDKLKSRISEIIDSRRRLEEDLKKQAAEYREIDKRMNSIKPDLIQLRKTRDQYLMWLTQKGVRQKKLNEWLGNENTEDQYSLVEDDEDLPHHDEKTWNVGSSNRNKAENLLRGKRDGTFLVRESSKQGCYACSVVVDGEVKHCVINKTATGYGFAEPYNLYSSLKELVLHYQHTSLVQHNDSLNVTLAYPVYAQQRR
Description: Inhibition of recombinant human N-terminal His-tagged full length p110delta/recombinant human full length p85alpha using PIP2 as substrate preincubated for 30 mins followed by substrate addition by HTRF assay

[31] = target: PI3-kinase p110-alpha/p85-alpha (Homo sapiens, UniProt P42336)
Chain of PI3-kinase p110-alpha/p85-alpha (P27986 whole entry): as the sequence (P27986 whole entry, one chain of several) above
Chain of PI3-kinase p110-alpha/p85-alpha (P42336 whole entry): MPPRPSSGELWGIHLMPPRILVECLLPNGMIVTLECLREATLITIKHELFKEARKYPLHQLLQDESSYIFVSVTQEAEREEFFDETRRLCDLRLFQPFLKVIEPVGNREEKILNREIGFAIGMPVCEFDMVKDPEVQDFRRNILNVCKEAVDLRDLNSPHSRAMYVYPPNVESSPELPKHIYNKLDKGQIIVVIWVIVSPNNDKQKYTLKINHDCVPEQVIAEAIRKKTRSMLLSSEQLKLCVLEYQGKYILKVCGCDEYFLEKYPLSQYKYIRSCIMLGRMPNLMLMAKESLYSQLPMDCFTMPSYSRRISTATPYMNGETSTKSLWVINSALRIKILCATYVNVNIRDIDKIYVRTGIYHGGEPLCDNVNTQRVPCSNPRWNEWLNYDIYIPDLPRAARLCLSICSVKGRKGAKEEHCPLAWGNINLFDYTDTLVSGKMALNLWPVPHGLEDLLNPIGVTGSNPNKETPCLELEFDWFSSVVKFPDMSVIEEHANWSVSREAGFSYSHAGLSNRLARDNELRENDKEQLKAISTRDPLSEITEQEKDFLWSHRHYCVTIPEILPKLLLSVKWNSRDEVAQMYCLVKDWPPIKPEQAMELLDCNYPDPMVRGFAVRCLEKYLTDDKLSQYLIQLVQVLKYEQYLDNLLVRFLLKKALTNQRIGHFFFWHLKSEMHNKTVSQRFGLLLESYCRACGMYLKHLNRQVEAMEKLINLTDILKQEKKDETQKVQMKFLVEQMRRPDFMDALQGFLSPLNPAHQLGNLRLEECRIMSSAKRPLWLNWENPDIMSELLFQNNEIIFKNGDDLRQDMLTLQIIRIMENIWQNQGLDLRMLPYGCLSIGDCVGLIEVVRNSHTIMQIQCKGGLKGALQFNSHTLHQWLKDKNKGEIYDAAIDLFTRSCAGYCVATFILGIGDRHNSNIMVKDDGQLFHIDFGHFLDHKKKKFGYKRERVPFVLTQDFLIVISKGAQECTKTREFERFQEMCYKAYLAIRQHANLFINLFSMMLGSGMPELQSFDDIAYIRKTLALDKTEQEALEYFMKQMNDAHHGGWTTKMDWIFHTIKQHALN
Description: Inhibition of recombinant human N-terminal His6-tagged full length p110alpha/recombinant human full length p85alpha using PIP2 as substrate preincubated for 30 mins followed by substrate addition by HTRF assay

[32] = target: PI3K p110 beta/p85 alpha (Homo sapiens, UniProt P42338)
Chain of PI3K p110 beta/p85 alpha (P27986 whole entry): as the sequence (P27986 whole entry, one chain of several) above
Chain of PI3K p110 beta/p85 alpha (P42338 whole entry): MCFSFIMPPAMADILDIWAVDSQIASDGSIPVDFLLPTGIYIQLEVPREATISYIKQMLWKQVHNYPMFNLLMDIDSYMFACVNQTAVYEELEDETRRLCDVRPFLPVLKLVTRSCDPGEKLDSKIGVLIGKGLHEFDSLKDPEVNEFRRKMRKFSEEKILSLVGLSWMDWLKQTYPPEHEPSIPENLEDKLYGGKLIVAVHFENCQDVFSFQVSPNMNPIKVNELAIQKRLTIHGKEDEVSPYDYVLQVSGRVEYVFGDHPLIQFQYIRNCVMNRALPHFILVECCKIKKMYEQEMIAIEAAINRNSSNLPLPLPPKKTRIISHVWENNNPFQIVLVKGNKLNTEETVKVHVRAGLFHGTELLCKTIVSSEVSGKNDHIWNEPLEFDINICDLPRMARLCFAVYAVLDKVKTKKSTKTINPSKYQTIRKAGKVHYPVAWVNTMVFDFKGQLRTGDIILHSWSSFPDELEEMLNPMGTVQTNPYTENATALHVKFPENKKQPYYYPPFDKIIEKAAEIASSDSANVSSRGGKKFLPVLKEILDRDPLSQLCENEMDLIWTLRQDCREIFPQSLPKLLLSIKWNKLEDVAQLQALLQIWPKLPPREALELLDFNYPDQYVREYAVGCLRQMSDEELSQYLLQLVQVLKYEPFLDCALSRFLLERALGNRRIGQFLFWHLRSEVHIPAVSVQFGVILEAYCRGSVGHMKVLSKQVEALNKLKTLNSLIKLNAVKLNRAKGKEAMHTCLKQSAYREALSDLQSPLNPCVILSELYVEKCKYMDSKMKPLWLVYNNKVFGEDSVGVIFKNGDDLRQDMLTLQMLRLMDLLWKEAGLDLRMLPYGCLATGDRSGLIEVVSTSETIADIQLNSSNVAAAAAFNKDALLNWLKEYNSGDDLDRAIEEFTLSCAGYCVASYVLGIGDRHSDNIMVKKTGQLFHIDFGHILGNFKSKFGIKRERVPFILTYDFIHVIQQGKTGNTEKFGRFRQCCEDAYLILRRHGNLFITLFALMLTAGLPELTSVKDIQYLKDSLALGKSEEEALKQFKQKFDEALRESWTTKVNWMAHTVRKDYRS
Description: Inhibition of recombinant human N-terminal His6-tagged full length p110beta/recombinant human full length p85alpha using PIP2 as substrate preincubated for 30 mins followed by substrate addition and HTRF assay

[33] = system: Rattus norvegicus; assay: as §1, with “of eosinophil” for “of neutrophil”, “at 0.3” for “at 1”; format: functional; details: inhaled or nasal
[34] = system: Rattus norvegicus; assay: as §1, with “at 0.3” for “at 1”; format: functional; details: inhaled or nasal

Chain of Phosphatidylinositol 4,5-bisphosphate 3-kinase catalytic subunit gamma isoform (P48736 whole entry, canonical isoform): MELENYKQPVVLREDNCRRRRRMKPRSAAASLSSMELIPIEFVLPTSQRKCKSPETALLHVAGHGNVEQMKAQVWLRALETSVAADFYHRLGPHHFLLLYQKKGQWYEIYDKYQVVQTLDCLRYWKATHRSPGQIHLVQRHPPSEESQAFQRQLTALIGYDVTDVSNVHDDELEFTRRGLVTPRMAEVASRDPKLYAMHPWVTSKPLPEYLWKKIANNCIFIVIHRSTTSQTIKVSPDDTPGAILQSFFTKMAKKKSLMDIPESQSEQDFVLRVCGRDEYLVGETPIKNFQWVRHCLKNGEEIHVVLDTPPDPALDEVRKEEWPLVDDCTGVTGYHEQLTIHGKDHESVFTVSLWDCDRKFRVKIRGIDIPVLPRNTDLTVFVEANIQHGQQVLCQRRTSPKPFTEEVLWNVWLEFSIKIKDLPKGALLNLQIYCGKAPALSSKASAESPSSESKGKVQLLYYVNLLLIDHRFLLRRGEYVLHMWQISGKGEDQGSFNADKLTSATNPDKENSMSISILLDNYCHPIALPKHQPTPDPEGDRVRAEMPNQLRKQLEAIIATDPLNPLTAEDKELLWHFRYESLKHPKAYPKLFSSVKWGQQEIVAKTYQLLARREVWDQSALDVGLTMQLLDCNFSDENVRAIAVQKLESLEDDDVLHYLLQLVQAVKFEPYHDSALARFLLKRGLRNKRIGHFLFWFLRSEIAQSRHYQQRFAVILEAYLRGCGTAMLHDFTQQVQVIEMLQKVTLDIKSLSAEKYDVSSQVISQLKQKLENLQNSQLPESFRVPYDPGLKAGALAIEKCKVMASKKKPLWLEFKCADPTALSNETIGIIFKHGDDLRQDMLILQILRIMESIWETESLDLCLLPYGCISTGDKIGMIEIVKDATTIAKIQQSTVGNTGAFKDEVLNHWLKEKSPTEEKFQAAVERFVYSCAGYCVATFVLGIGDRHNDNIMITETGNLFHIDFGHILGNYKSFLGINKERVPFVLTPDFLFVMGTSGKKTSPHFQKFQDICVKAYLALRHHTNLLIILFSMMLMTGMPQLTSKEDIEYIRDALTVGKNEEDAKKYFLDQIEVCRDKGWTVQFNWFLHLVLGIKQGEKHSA

- IC50 [1]: 11 nM
- metabolised at 0.5 h, 5 µM [2]: 44%
- metabolised at 2 h, 5 µM [3]: 96%
- metabolised at 0.5 h, 5 µM [4]: 71%
- metabolised at 2 h, 5 µM [5]: 97%
- IC50 [6]: 4.4 nM
- Papp at 20 µM [7]: 1.7 ×10⁻⁶ cm/s
- solubility thermodynamic [8]: 36 µg/mL (≈ 76.4 µM)
- AUC [9]: 149 ng·h/mL
- Cmax [10]: 236 ng/mL
- clearance [11]: 112 mL/min/kg
- Vd [12]: 5.2 L/kg
- half-life [13]: 1 h
- bioavailability [14]: 13%
- fraction unbound at 1 µM [15]: 0.054
- AUC [16]: 0.2 µg·h/g
- AUC [17]: 30.6 µg·h/g
- AUC [18]: 6.4 ng·h/mL
- AUC [19]: 148 ng·h/mL
- Kp [20]: 31
- Kp [21]: 207
- Cmax [22]: 700 ng/g
- Cmax [23]: 18600 ng/g
- Cmax [24]: 36.3 ng/mL
- half-life [25]: 4.7 h
- half-life [26]: 5.7 h
- half-life [27]: 0.7 h
- half-life [28]: 1.1 h
- IC50 [30]: 0.5 nM
- IC50 [31]: 1100 nM
- IC50 [32]: 87 nM
Structure (SMILES): Cc1ccn2nc([C@H](C)Nc3ncnc(N)c3-c3ccc(O)c(F)c3)n(-c3ccccc3)c(=O)c12
- inhibition in vivo at 1 mg/kg [29]: 37%

Structure (SMILES): C[C@@H]1C[C@H]2[C@@H]3C[C@H](F)C4=CC(=O)C=C[C@]4(C)[C@@]3(F)[C@@H](O)C[C@]2(C)[C@@]1(O)C(=O)SCF [FLUTICASONE]
- inhibition in vivo at 0.3 mg/kg [33]: 82%
- inhibition in vivo at 0.3 mg/kg [34]: 89%

— ChEMBL document CHEMBL4152386, “Discovery of a Novel Inhaled PI3Kδ Inhibitor for the Treatment of Respiratory Diseases” (J Med Chem, 2018)
